Tests used:
[1] = test system: patients with chronic schizophrenia; assay: CGI-S score, Clinical Study Four; type: in vivo, human; settings: FAS, ANCOVA; for CGI-S, Adjusted Mean Change from Baseline (LS mean): LOCF; for mean CGI-S scores, time points of statistically significant superiority to PBO: per-visit LOCF analysis
Method: (§1) METHODOLOGY: This study was a multinational, multicenter, randomized, double-blind, parallel-group, placebo-controlled, fixed-dose study. The study consisted of a 3- to 6-day antipsychotic-free run-in period, after which patients were randomised to 6 months of double-blind treatment with fixed doses of bifeprunox (20 mg/day (BX20) or 30 mg/day (BX30)) or placebo (PBO). Patients allocated to the BX groups were up-titrated from 0.25 mg/day over 7 days (BX20) or 8 days (BX30), and then continued on these doses for the remainder of the study. […] At predetermined time points, blood samples were obtained for drug concentration analysis of BX and its major metabolites (3′- and 4′-sulfate conjugates of BX), and pharmaco-economic assessments were performed.

serum proteins = assay: Binding to serum proteins
[2] = test system: patients with chronic schizophrenia; assay: PANSS total score, Clinical Study Four; type: in vivo, human; settings: FAS, ANCOVA; for Adjusted Mean Change from Baseline in PANSS Total Score, Difference to PBO Mean: Week 6 (day 42)
Method: as §1

Structure (SMILES): O=c1[nH]c2cccc(N3CCN(Cc4cccc(-c5ccccc5)c4)CC3)c2o1 [Bifeprunox, 7-[4-([1,1′-biphenyl]-3-ylmethyl)-1-piperazinyl]-2(3H)-benzoxazolone]
- CGI-S, Adjusted Mean Change from Baseline (LS mean) ([1]; Month 6, listed as BX20): −0.1
- CGI-S, Adjusted Mean Change from Baseline (LS mean) ([1]; Month 6, listed as BX30): 0.0
- CGI-S, Adjusted Mean Change from Baseline (LS mean) ([1]; Week 6, listed as BX20): −0.2
- CGI-S, Adjusted Mean Change from Baseline (LS mean) ([1]; Week 6, listed as BX30): −0.1
- mean CGI-S scores, time points of statistically significant superiority to PBO ([1]; listed as BX20): Months 3, 4, 5, and 6
- mean CGI-S scores, time points of statistically significant superiority to PBO ([1]; listed as BX30): Months 5 and 6
- bound to serum proteins (serum proteins): approximately 99%
- Adjusted Mean Change from Baseline in PANSS Total Score, Difference to PBO Mean ([2]; BX20 (bifeprunox 20 mg/day), LOCF): −5.07
- Adjusted Mean Change from Baseline in PANSS Total Score, Difference to PBO Mean ([2]; BX30 (bifeprunox 30 mg/day), LOCF): −3.71
- Adjusted Mean Change from Baseline in PANSS Total Score, Least Squares Estimates Mean ([2]; Day 7, LOCF, listed as BX20): −1.89
- Change from Baseline in PANSS Total Score, Difference to PBO Mean ([2]; Day 7, LOCF, listed as BX20): −1.30
- Adjusted Mean Change from Baseline in PANSS Total Score, Least Squares Estimates Mean ([2]; Day 7, LOCF, listed as BX30): −0.73
- Change from Baseline in PANSS Total Score, Difference to PBO Mean ([2]; Day 7, LOCF, listed as BX30): −0.14
- Adjusted Mean Change from Baseline in PANSS Total Score, Least Squares Estimates Mean ([2]; Day 7, OC, listed as BX20): −1.89
- Change from Baseline in PANSS Total Score, Difference to PBO Mean ([2]; Day 7, OC, listed as BX20): −1.30
- Adjusted Mean Change from Baseline in PANSS Total Score, Least Squares Estimates Mean ([2]; Day 7, OC, listed as BX30): −0.73
- Change from Baseline in PANSS Total Score, Difference to PBO Mean ([2]; Day 7, OC, listed as BX30): −0.14
- Adjusted Mean Change from Baseline in PANSS Total Score, Least Squares Estimates Mean ([2]; Day 7, POCF, listed as BX20): −2.81
- Change from Baseline in PANSS Total Score, Difference to PBO Mean ([2]; Day 7, POCF, listed as BX20): −1.33
- Adjusted Mean Change from Baseline in PANSS Total Score, Least Squares Estimates Mean ([2]; Day 7, POCF, listed as BX30): −2.23
- Change from Baseline in PANSS Total Score, Difference to PBO Mean ([2]; Day 7, POCF, listed as BX30): −0.76
- Adjusted Mean Change from Baseline in PANSS Total Score, Least Squares Estimates Mean ([2]; Day 14, LOCF, listed as BX20): −3.03
- Change from Baseline in PANSS Total Score, Difference to PBO Mean ([2]; Day 14, LOCF, listed as BX20): −2.38
- Adjusted Mean Change from Baseline in PANSS Total Score, Least Squares Estimates Mean ([2]; Day 14, LOCF, listed as BX30): −1.45
- Change from Baseline in PANSS Total Score, Difference to PBO Mean ([2]; Day 14, LOCF, listed as BX30): −0.79
- Adjusted Mean Change from Baseline in PANSS Total Score, Least Squares Estimates Mean ([2]; Day 14, OC, listed as BX20): −4.77
- Change from Baseline in PANSS Total Score, Difference to PBO Mean ([2]; Day 14, OC, listed as BX20): −2.39
- Adjusted Mean Change from Baseline in PANSS Total Score, Least Squares Estimates Mean ([2]; Day 14, OC, listed as BX30): −4.43
- Change from Baseline in PANSS Total Score, Difference to PBO Mean ([2]; Day 14, OC, listed as BX30): −2.05
- Adjusted Mean Change from Baseline in PANSS Total Score, Least Squares Estimates Mean ([2]; Day 14, POCF, listed as BX20): −5.48
- Change from Baseline in PANSS Total Score, Difference to PBO Mean ([2]; Day 14, POCF, listed as BX20): −2.61
- Adjusted Mean Change from Baseline in PANSS Total Score, Least Squares Estimates Mean ([2]; Day 14, POCF, listed as BX30): −4.65
- Change from Baseline in PANSS Total Score, Difference to PBO Mean ([2]; Day 14, POCF, listed as BX30): −1.78
- Adjusted Mean Change from Baseline in PANSS Total Score, Least Squares Estimates Mean ([2]; Day 28, LOCF, listed as BX20): −.327
- Change from Baseline in PANSS Total Score, Difference to PBO Mean ([2]; Day 28, LOCF, listed as BX20): −3.34
- Adjusted Mean Change from Baseline in PANSS Total Score, Least Squares Estimates Mean ([2]; Day 28, LOCF, listed as BX30): −2.13
- Change from Baseline in PANSS Total Score, Difference to PBO Mean ([2]; Day 28, LOCF, listed as BX30): −2.20
- Adjusted Mean Change from Baseline in PANSS Total Score, Least Squares Estimates Mean ([2]; Day 28, OC, listed as BX20): −7.61
- Change from Baseline in PANSS Total Score, Difference to PBO Mean ([2]; Day 28, OC, listed as BX20): −4.09
- Adjusted Mean Change from Baseline in PANSS Total Score, Least Squares Estimates Mean ([2]; Day 28, OC, listed as BX30): −7.14
- Change from Baseline in PANSS Total Score, Difference to PBO Mean ([2]; Day 28, OC, listed as BX30): −3.63
- Adjusted Mean Change from Baseline in PANSS Total Score, Least Squares Estimates Mean ([2]; Day 28, POCF, listed as BX20): −7.74
- Change from Baseline in PANSS Total Score, Difference to PBO Mean ([2]; Day 28, POCF, listed as BX20): −3.63
- Adjusted Mean Change from Baseline in PANSS Total Score, Least Squares Estimates Mean ([2]; Day 28, POCF, listed as BX30): −6.85
- Change from Baseline in PANSS Total Score, Difference to PBO Mean ([2]; Day 28, POCF, listed as BX30): −2.74
- Adjusted Mean Change from Baseline in PANSS Total Score, Least Squares Estimates Mean ([2]; Day 42, LOCF, listed as BX20): −4.01
- Change from Baseline in PANSS Total Score, Difference to PBO Mean ([2]; Day 42, LOCF, listed as BX20): −5.07
- Adjusted Mean Change from Baseline in PANSS Total Score, Least Squares Estimates Mean ([2]; Day 42, LOCF, listed as BX30): −2.65
- Change from Baseline in PANSS Total Score, Difference to PBO Mean ([2]; Day 42, LOCF, listed as BX30): −3.71
- Adjusted Mean Change from Baseline in PANSS Total Score, Least Squares Estimates Mean ([2]; Day 42, OC, listed as BX20): −12.40
- Change from Baseline in PANSS Total Score, Difference to PBO Mean ([2]; Day 42, OC, listed as BX20): −6.14
- Adjusted Mean Change from Baseline in PANSS Total Score, Least Squares Estimates Mean ([2]; Day 42, OC, listed as BX30): −11.23
- Change from Baseline in PANSS Total Score, Difference to PBO Mean ([2]; Day 42, OC, listed as BX30): −4.97
- Adjusted Mean Change from Baseline in PANSS Total Score, Least Squares Estimates Mean ([2]; Day 42, POCF, listed as BX20): −9.40
- Change from Baseline in PANSS Total Score, Difference to PBO Mean ([2]; Day 42, POCF, listed as BX20): −4.32
- Adjusted Mean Change from Baseline in PANSS Total Score, Least Squares Estimates Mean ([2]; Day 42, POCF, listed as BX30): −8.12
- Change from Baseline in PANSS Total Score, Difference to PBO Mean ([2]; Day 42, POCF, listed as BX30): −3.05
- Adjusted Mean Change from Baseline in PANSS Total Score, Least Squares Estimates Mean ([2]; Day 63, LOCF, listed as BX20): −3.22
- Change from Baseline in PANSS Total Score, Difference to PBO Mean ([2]; Day 63, LOCF, listed as BX20): −5.47
- Adjusted Mean Change from Baseline in PANSS Total Score, Least Squares Estimates Mean ([2]; Day 63, LOCF, listed as BX30): −2.44
- Change from Baseline in PANSS Total Score, Difference to PBO Mean ([2]; Day 63, LOCF, listed as BX30): −4.68
- Adjusted Mean Change from Baseline in PANSS Total Score, Least Squares Estimates Mean ([2]; Day 63, OC, listed as BX20): −12.85
- Change from Baseline in PANSS Total Score, Difference to PBO Mean ([2]; Day 63, OC, listed as BX20): −4.52

— patent US20090068290A1, “BIFEPRUNOX DOSES FOR TREATING SCHIZOPHRENIA” (priority 2006, published 2009)
